The target of test [1] is T1, GHRH receptor (Homo sapiens, UniProt Q02643).
T1 sequence (Q02643 23-423): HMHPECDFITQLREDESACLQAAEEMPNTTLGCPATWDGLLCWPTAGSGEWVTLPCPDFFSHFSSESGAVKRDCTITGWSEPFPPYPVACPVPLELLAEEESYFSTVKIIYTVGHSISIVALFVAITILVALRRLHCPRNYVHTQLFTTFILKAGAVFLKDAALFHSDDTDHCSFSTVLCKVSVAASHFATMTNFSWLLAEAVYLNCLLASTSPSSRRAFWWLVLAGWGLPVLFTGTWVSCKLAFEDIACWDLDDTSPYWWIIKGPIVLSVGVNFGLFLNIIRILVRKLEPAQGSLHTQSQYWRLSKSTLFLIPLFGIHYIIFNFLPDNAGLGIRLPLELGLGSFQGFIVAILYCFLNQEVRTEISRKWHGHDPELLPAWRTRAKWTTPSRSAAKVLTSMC
Briefly: GHRH receptor binding, competition with 125I-labeled [His1,Nle27]hGHRH(1-32)NH2, human pituitary membrane homogenates (Table 6). On the set-up: Normal human pituitaries were purchased from the National Hormone and Peptide Program; tissue National Hormone and Peptide Program (A.F. Parlow, Harbor-UCLA Medical Center, Torrance, Calif.); host or cells: normal human pituitary, membrane fraction. Conditions: for Relative affinity (Binding potency) vs GHRH: GHRH(1-29) = 1, Table 6; for Relative affinity (Binding potency) vs JI-38: JI-38 = 1, Table 6. The text has this: (§1) Normal human pituitaries were purchased from the National Hormone and Peptide Program (A.F. Parlow, Los Angeles, County Harbor-UCLA Medical Center, Torrance, Calif.).

Test [2] concerns GH release. Nature of the test: In vivo endocrine activity, GH release after subcutaneous administration (Table 9). Conditions: rat, subcutaneous (s.c.) injection. On the procedure:
Subcutaneous Administration. Adult male rats were used and anesthetized with pentobarbital (6 mg/100 g, b.w.), by i.p. injection. […] Blood samples were taken from the jugular vein 5, 15 and/or 30 minutes after the injection. The blood samples were centrifuged, plasma was removed and the GH level was measured byELISA. The results are summarized in terms of potency in Table 9.

Test [3] deals with T1, GHRH receptor. Briefly: Receptor binding in vitro, 125I-labeled [His1,Nle27]-hGHRH(1-32)NH2, membrane receptors of human anterior pituitary cells (Table 14).
Text: Normal human pituitary was purchased from the National Hormone and Peptide Program (UCLA Medical Center, Torrance, Calif.).
Test [4] addresses T1, GHRH receptor. Nature of the test: GHRH receptor binding, competition with 125I-labeled JV-1-42, human pituitary membrane homogenates (Table 7). On the set-up: Normal human pituitaries were purchased from the National Hormone and Peptide Program; tissue National Hormone and Peptide Program (A.F. Parlow, Harbor-UCLA Medical Center, Torrance, Calif.); host or cells: normal human pituitary, membrane fraction. Conditions: JI-38 = 1, Table 7.
Text: as §1

The subject of test [5] is GH release. Nature of the test: In vivo endocrine activity, GH release after intravenous administration (Table 8). Conditions: rat, i.v. injection.
Test [6] deals with GH release. Briefly: GH releasing potency in vivo, intravenous administration (Example 14, Table 13). The conditions noted are these: i.v. On the set-up: species or system rat. On the procedure: Male Sprague-Dawley rats, weighing 200-250 g, were purchased from Charles River Laboratory (Wilmington, Mass.) and used for experiments. All animal procedures were approved by the Veterans Affairs Animal Care and Use Committee and were conducted in accordance with additional institutional guidelines as well. Briefly, groups of 5-6 animals were used in each experiment. The rats were anesthetized with 50 mg/kg of sodium pentobarbital (Nembutal, Lundbeck Inc., Deerfield, Ill.). Twenty min after inducing anesthesia, GHRH(1-29)NH2, JI-38, or new analogs were injected into the animals intravenously (i.v.) or subcutaneously (s.c.). The peptides were dissolved in 0.01 M acetic acid to get 1 μg/μl stock solution, and then diluted with 5% mannitol. Control rats received 5% mannitol only. Blood samples were collected from the jugular vein at selected times and were used for serum preparation. Concentrations of GH in rat sera were determined by ELISA. The relative potencies of tested peptides were calculated using GHRH(1-29)NH2 and JI-38 for comparison, whose potency was defined as 1. The equivalent dosage of GHRH(1-29)NH2 to reach the same level of serum growth hormone release after injection of the specific tested peptide was determined from a GHRH(1-29)NH2 standard curve using Origin 6.0 software. […] Serum GH was determined using the rat Growth Hormone ELISA kit (ALPCO Diagnostics, Mill Valley, Calif.) according to the manufacturer's instruction. Absorbance at 405 nm was measured by a Victor 3 Multi-label Counter (Perkin-Elmer, Waltham, Md.).

The test system of test [7] is GH release. Nature of the test: GH releasing potency in vivo, subcutaneous administration (Example 14, Table 12). On the set-up: species or system rat. The conditions noted are these: s.c. Summed up: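 Potency is expressed relative to GHRH(1-29)NH2 and JI-38 (each = 1), via equivalent GHRH(1-29)NH2 dose read from a standard curve. Peptides in 5% mannitol given i.v. or s.c. to anaesthetised male Sprague-Dawley rats (200-250 g); serum GH measured by ELISA at selected times.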

Each structure is given as a SMILES string. Non-standard residues stand in square brackets, D forms with d. Residues, ends and D or L forms follow the SMILES beside them. *: point of attachment. Desaminotyrosyl = O=C(CCc1ccc(O)cc1)*; hArg = N=C(N)NCCCC[C@H](N)C(=O)O; Agmatine = N=C(N)NCCCCN*; Nle = CCCC[C@H](N)C(=O)O; Orn = NCCC[C@H](N)C(=O)O; dAbu = CC[C@@H](N)C(=O)O; Abu = CC[C@H](N)C(=O)O; GABA = NCCCC(=O)O

With `CCCC[C@H](NC(=O)[C@@H](NC(=O)[C@H](CC(=O)O)NC(=O)[C@H](CCC(N)=O)NC(=O)[C@H](CC(C)C)NC(=O)[C@H](CC(C)C)NC(=O)[C@H](CCCN)NC(=O)[C@H](CCCNC(=N)N)NC(=O)[C@H](C)NC(=O)[C@H](CO)NC(=O)[C@H](CC(C)C)NC(=O)[C@H](CCC(N)=O)NC(=O)[C@H](CC)NC(=O)[C@H](CC(C)C)NC(=O)[C@@H](NC(=O)[C@H](CCCN)NC(=O)[C@H](CCCNC(=N)N)NC(=O)[C@H](Cc1ccc(O)cc1)NC(=O)[C@H](CO)NC(=O)[C@H](CC(N)=O)NC(=O)[C@@H](NC(=O)[C@H](Cc1ccccc1)NC(=O)[C@@H](NC(=O)[C@H](C)NC(=O)[C@H](CC(=O)O)NC(=O)[C@H](C)NC(=O)CCc1ccc(O)cc1)[C@@H](C)CC)[C@@H](C)O)C(C)C)[C@@H](C)CC)C(=O)N[C@@H](CC(=O)O)C(=O)NCCCCNC(=N)N` [JI-34, reference compound] (Desaminotyrosyl-ADAIFTNSYR[Orn]VL[Abu]QLSAR[Orn]LLQDI[Nle]D-Agmatine; N-terminus and C-terminus assumed), at GHRH receptor [1], the “Relative affinity (Binding potency) vs GHRH” value is on record as 4.32.
Turning to `CCCC[C@H](NC(=O)[C@@H](NC(=O)[C@H](CC(=O)O)NC(=O)[C@H](CCC(N)=O)NC(=O)[C@H](CC(C)C)NC(=O)[C@H](CC(C)C)NC(=O)[C@H](CCCN)NC(=O)[C@H](CCCNC(=N)N)NC(=O)[C@H](C)NC(=O)[C@H](CO)NC(=O)[C@H](CC(C)C)NC(=O)[C@H](CCC(N)=O)NC(=O)[C@H](CC)NC(=O)[C@H](CC(C)C)NC(=O)[C@@H](NC(=O)[C@H](CCCN)NC(=O)[C@H](CCCNC(=N)N)NC(=O)[C@H](Cc1ccc(O)cc1)NC(=O)[C@H](CO)NC(=O)[C@H](CC(N)=O)NC(=O)[C@@H](NC(=O)[C@H](Cc1ccccc1)NC(=O)[C@@H](NC(=O)[C@H](C)NC(=O)[C@H](CC(=O)O)NC(=O)[C@@H](C)NC(=O)CCc1ccc(O)cc1)[C@@H](C)CC)[C@@H](C)O)C(C)C)[C@@H](C)CC)C(=O)N[C@@H](CC(=O)O)C(=O)N[C@@H](CCCNC(=N)N)C(=O)N[C@@H](CCCCNC(=N)N)C(N)=O` [Peptide P-23252, [Dat^1-D-Ala^2, Orn^12, Abu^15, Orn^21, Nle^27, Asp^28, Har^30]hGHRH(1-30)NH^2] (Desaminotyrosyl-[dA]DAIFTNSYR[Orn]VL[Abu]QLSAR[Orn]LLQDI[Nle]DR[hArg]-NH2), at GHRH receptor [1], the “Relative affinity (Binding potency) vs GHRH” value is listed as 42.3 and the “Relative affinity (Binding potency) vs JI-38” value turned out to be 13.9.
The like results for `CCCC[C@H](NC(=O)[C@@H](NC(=O)[C@H](CC(=O)O)NC(=O)[C@H](CCC(N)=O)NC(=O)[C@H](CC(C)C)NC(=O)[C@H](CC(C)C)NC(=O)[C@H](CCCN)NC(=O)[C@H](CCCNC(=N)N)NC(=O)[C@H](C)NC(=O)[C@H](CO)NC(=O)[C@H](CC(C)C)NC(=O)[C@H](CCC(N)=O)NC(=O)[C@H](CC)NC(=O)[C@H](CC(C)C)NC(=O)[C@@H](NC(=O)[C@H](CCCN)NC(=O)[C@H](CCCNC(=N)N)NC(=O)[C@H](Cc1ccc(O)cc1)NC(=O)[C@H](CO)NC(=O)[C@@H](NC(=O)[C@@H](NC(=O)[C@H](Cc1ccccc1)NC(=O)[C@@H](NC(=O)[C@H](C)NC(=O)[C@H](CC(=O)O)NC(=O)[C@@H](C)NC(=O)CCc1ccc(O)cc1)[C@@H](C)CC)[C@@H](C)O)[C@@H](C)O)C(C)C)[C@@H](C)CC)C(=O)N[C@@H](CC(=O)O)C(=O)N[C@@H](CCCNC(=N)N)C(=O)N[C@@H](CCCCNC(=N)N)C(N)=O` [Peptide P-23254, [Dat^1, D-Ala^2, Thr^8, Orn^12, Abu^15, Orn^21, Nle^27, Asp^28, Har^30]hGHRH(1-30)NH2] (Desaminotyrosyl-[dA]DAIFTTSYR[Orn]VL[Abu]QLSAR[Orn]LLQDI[Nle]DR[hArg]-NH2) were, in that order, 84.5 and 27.8.
On to `CCCC[C@H](NC(=O)[C@@H](NC(=O)[C@H](CC(=O)O)NC(=O)[C@H](CCC(N)=O)NC(=O)[C@H](CC(C)C)NC(=O)[C@H](CC(C)C)NC(=O)[C@H](CCCN)NC(=O)[C@H](CCCNC(=N)N)NC(=O)[C@H](C)NC(=O)[C@H](CO)NC(=O)[C@H](CC(C)C)NC(=O)[C@H](CCC(N)=O)NC(=O)[C@H](CC)NC(=O)[C@H](CC(C)C)NC(=O)[C@@H](NC(=O)[C@H](CCCN)NC(=O)[C@H](CCCNC(=N)N)NC(=O)[C@H](Cc1ccc(O)cc1)NC(=O)[C@H](CO)NC(=O)[C@H](CC(N)=O)NC(=O)[C@@H](NC(=O)[C@H](Cc1ccccc1)NC(=O)[C@@H](NC(=O)[C@H](C)NC(=O)[C@H](CC(=O)O)NC(=O)[C@@H](CC)NC(=O)CCc1ccc(O)cc1)[C@@H](C)CC)[C@@H](C)O)C(C)C)[C@@H](C)CC)C(=O)N[C@@H](CO)C(=O)N[C@@H](CCCNC(=N)N)C(=O)NCCCC(N)=O` [Peptide P-25504, [Dat^1, D-Abu^2, Orn^12, Abu^15, Orn^21, Nle^27, Gab^30]hGHRH(1-30)NH2] (Desaminotyrosyl-[dAbu]DAIFTNSYR[Orn]VL[Abu]QLSAR[Orn]LLQDI[Nle]SR[GABA]-NH2), for which the entries for the “GH releasing potency relative to JI-38 (=1)” value in the test on GH release [2] (15 min after) and in the test on GH release [2] (30 min after) were 0.78 and 0.98, respectively. The “Relative affinity (Binding potency) compared to JI-38” value at GHRH receptor [3] (JI-38 = 1) is 0.96. Moreover, the “Relative affinity (Binding potency) compared to hGHRH(1-29)” value at GHRH receptor [3] (hGHRH(1-29)NH2 = 1) was found to be 2.68. For the same molecule, the “Relative affinity (Binding potency) vs JI-38” value at GHRH receptor [4] turned out to be 3.02. Moreover, the results for the “GH releasing potency in vivo relative to JI-38 (=1)” value with GH release [5] (5 min after), in the test on GH release [5] (15 min after) and in the test with GH release [5] (30 min after) were 1.66, 1.65 and 1.37, respectively. Also, in the test on GH release [6] (5 min, JI-38 = 1), the “Relative potency, 5 min” value is 1.55. In addition, the “Relative potency, 15 min” value with GH release [6] (15 min, JI-38 = 1) is given as 1.50. The “Serum GH level at selected time after injection (ng/ml), 0 min” value came to 25.7 ± 6.3 ng/mL in the test with GH release [6] (dose 1 μg/kg, 0 min, mean ± SEM) and 25.4 ± 4.1 ng/mL in the test on GH release [7] (male rats, dose 3 μg/kg, 0 min, mean ± SEM). Further, the “Serum GH level at selected time after injection (ng/ml), 5 min” value with GH release [6] (dose 1 μg/kg, 5 min, mean ± SEM) turned out to be 832 ± 214 ng/mL. For the same molecule, the “Serum GH level at selected time after injection (ng/ml), 15 min” value worked out at 297 ± 45.6 ng/mL in the test with GH release [6] (dose 1 μg/kg, 15 min, mean ± SEM) and 200.0 ± 10.7 ng/mL in the test on GH release [7] (male rats, dose 3 μg/kg, 15 min, mean ± SEM). In addition, in the test with GH release [7] (male rats, dose 3 μg/kg, 30 min, mean ± SEM), the “Serum GH level at selected time after injection (ng/ml), 30 min” value is 130.0 ± 19.1 ng/mL. In the test on GH release [7] (15 min), the “Relative potency compared to GHRH(1-29), 15 min” value is on record as 52.6. Further, the “Relative potency compared to JI-38, 15 min” value with GH release [7] (15 min) was 0.83. Moreover, the “Relative potency compared to GHRH(1-29), 30 min” value with GH release [7] (30 min) came out at 113.8. In the test on GH release [7] (30 min), the “Relative potency compared to JI-38, 30 min” value is 1.02.

The values are drawn from patent US10555987B2, “GHRH agonists for the treatment of ischemic disorders” (UNIVERSITY OF MIAMI, priority 2012, dated 2020).
